Entries after “also recorded” stand apart in the source; their conditions may differ.

Assay [1] concerns MCF-7 cells. In words: Cell cycle FACS analysis, MCF-7. It is filed as cell-based, human. To be noted: 10 μM ERAP1-peptide and/or 10 nM tamoxifen, 10 nM E2 24 hours. Here is the method:
FIG. 6-2 is a diagram illustrating that ERAP1-peptide treatment suppresses ERα-dependent cell proliferation of breast cancer cell lines. […] MCF-7 cells were treated with 10 μM ERAP1-peptide or 10 μM tamoxifen. Then, immediately, the cells were stimulated with 10 nM E2 for 24 hours. After the immobilization, the cells were stained with propidium iodide, and analyzed by flow cytometry.
FIG. 19 is a diagram illustrating the results of FACS analysis showing the effects of concomitant use of the ERAP1-peptide and tamoxifen on the cell cycle.
The cells were fixed with cold 70% ethanol, and stained with 20 μg/ml propidium iodide (Sigma) and 1 mg/ml ribonuclease A (Sigma), and analyzed with FACSCalibur (B D, Franklin Lakes, N.J., USA). The cell cycle was evaluated using CellQuest software (BD).
MCF-7 cells were treated with 10 μM ERAP1-peptide and/or 10 nM tamoxifen. Then, immediately, the cells were stimulated with 10 nM E2 for 24 hours. After the immobilization, the cells were stained with propidium iodide, and analyzed by flow cytometry.
A general note: In flow cytometry, cells or beads pass a laser one at a time.

Assay [2] deals with pS2, cyclin D1, c-Myc, SP-1, E2F1, PgR. Kind of assay: Quantitative RT-PCR of ERα target genes, MCF-7. It is filed as cell-based, human.
Assay [3] deals with ERα phosphorylation. Kind of assay: E2-induced ERα phosphorylation, Western blotting, KPL-3C and BT-474. It is filed as cell-based, human. Conditions: KPL-3C and BT-474 cells. The protocol:
(§1) FIG. 9-2 is a diagram illustrating that ERAP1-peptide treatment suppresses the non-genomic activation route. […] The cells (C and D) or BT474 cells (E) Were treated with the ERAP1-peptide. Then, the phosphorylation levels of Akt (C). MAPK (C) and ERα (D and E) were evaluated with Western blotting. The relative phosphorylation levels were quantified by densitometry analysis, and the ratio to the value at 0 hour for non-treated cells was calculated.

For assay [4], the system named is Tam-R MCF-7 tumor. Kind of assay: In vivo antitumor effect, Tam-R MCF-7 orthotopic transplant. Also noted: species or system BALB/c nude mouse. To be noted: intraperitoneal every day, E2 6 μg/day, day 21. The text has this: FIG. 27 is a diagram illustrating the inhibition effect of the ERAP1-peptide on tumor proliferation in a mouse orthotopically transplanted with human breast cancer. […] KPL-3 cells were subcutaneously transplanted into the breast fat body of a BALB/c nude mouse. The treatment test (5 individuals/group) was initiated (day 0) when the volume of the tumor reached about 50-80 mm^3 in the absence of E2. To a cancerous mouse orthotopically transplanted with KPL-3C tumor, the ERAP1-peptide (Peptide: 14 mg/kg) or the ERAP1-scramble peptide (scrPeptide: 14 mg/kg) was administered every day by intraperitoneal injection. At the same time, E2 (6 μg/day) was administered subcutaneously every day. On day 14, the mouse was euthanatized, and the tumor was removed, and phosphorylation of PHB2/REA (S39) in each tumor was evaluated with immunoblotting analysis. […] The tamoxifen-resistant MCF7-cells (Tam-R MCF-7) were subcutaneously transplanted into the breast fat body of a BALB/c nude mouse, and the treatment test (5 individuals/group) was initiated (day 0) when the volume of the tumor reached about 50-80 mm^3 in the presence of tamoxifen (37 ng/day, 1.85 μg/kg). To a cancerous mouse orthotopically transplanted with Tam-R MCF-7 tumor, the ERAP1-peptide (Peptide: 3.5, 7 and 14 mg/kg) or the ERAP1-scramble peptide (scrPeptide: 14 mg/kg) was administered every day by intraperitoneal injection. […]

In assay [5] the test system is ERα interaction with IGF-1Rβ, Shc; AKT and MAPK. Kind of assay: Non-genomic activation route, immunoblotting, KPL-3C. It is filed as cell-based, human. Here is the method:
FIG. 9-1 is a diagram illustrating that ERAP1-peptide treatment suppresses the non-genomic activation route. […] The cell lysate of the ERα-positive breast cancer cell lines shown in the figure was subjected to immunoblotting analysis using the antibodies shown in the figure. […] KPL-3C cells were treated with the ERAP1-peptide and/or E2 for 24 hours. Then the nuclear fraction was immunoprecipitated with anti-ERα antibody.
as §1

In assay [6] the test system is ERα binding to Her2, EGFR, IGF1-Rβ, PI3K; AKt and MAPK routes. Kind of assay: Non-genomic activation route, immunoblotting, BT474. It is filed as cell-based, human. Here is the method:
FIG. 10-2 is a diagram illustrating that the ERAP1-peptide regulates E2-induced non-genomic activation route via IGF-1Rβ and Shc. […] BT-474 cells were treated with the ERAP1-peptide and/or E2 for 24 hours. Then, the cytoplasm fraction was immunoprecipitated with anti-ERα antibody.
FIG. 10-3 is a diagram illustrating that the ERAP1-peptide regulates E2-induced non-genomic activation route via IGF-1Rβ and Shc. […] BT-474 cells were treated with the ERAP1-peptide. Then, the phosphorylation levels of Akt and MAPK were evaluated by Western blotting. […] MCF-7 cells were treated with the ERAP1-peptide or the ERAP1-scramble peptide. The relative phosphorylation levels were quantified by densitometry analysis, and the ratio to the value at 0 hour in the untreated cells was calculated.
For orientation: A western blot detects proteins with antibodies after separation by electrophoresis.

Assay [7] relates to protein expression in MCF-7 cells. In words: 2DICAL proteome analysis, MCF-7. It counts as cell-based, human. Conditions: 10 μM, 10 nM E2 1 hour, versus E2 or E2 + scramble. The protocol:
MCF-7 cells were treated with 10 μM ERAP1-peptide (Peptide) and the ERAP1-scramble peptide (scrPeptide). Then, immediately, the cells were stimulated with 10 nM E2 for 1 hour. Subsequently, the obtained cell lysate solution was digested with trypsin and subjected to 2DICAL. […] MCF-7 cells were treated with 10 μM ERAP1-peptide. Then, immediately, the cells were stimulated with 10 nM E2 for 5, 10 and 15 hours. Then, RNA extraction and then Cy3-cRNA synthesis were performed, and the Cy3-cRNA was subjected to the microarray. The data were statistically analyzed by GeneSpring software, and the ratio to the value at 0 hour was calculated. **P<0.01.
MCF-7 cells were treated with 10 μM ERAP1-peptide and ERAP1-scramble peptide. Then, immediately, the cells were stimulated with 10 nM E2. Then, the cells were fixed with methanol. The cells were dried under reduced pressure, and then treated with trypsin in the presence of 2% sodium deoxycholate and 5 M urea at 37° C. for 20 hours. The protein was extracted with ethyl acetate. […] The data were calculated as a ratio to the value at 0 hour.

With `CSCC[C@H](NC(=O)[C@H](CCC(N)=O)NC(=O)[C@H](CCCNC(=N)N)NC(=O)[C@H](CCCNC(=N)N)NC(=O)[C@H](CCCNC(=N)N)NC(=O)[C@H](CCCNC(=N)N)NC(=O)[C@H](CCCNC(=N)N)NC(=O)[C@H](CCCNC(=N)N)NC(=O)[C@H](CCCNC(=N)N)NC(=O)[C@H](CCCNC(=N)N)NC(=O)[C@H](CCCNC(=N)N)NC(=O)[C@H](CCCNC(=N)N)NC(=O)[C@@H](N)CCCNC(=N)N)C(=O)N[C@@H](CC(C)C)C(=O)N[C@@H](CO)C(=O)N[C@@H](CC(=O)O)C(=O)N[C@@H](CC(C)C)C(=O)N[C@H](C(=O)N[C@@H](CC(C)C)C(=O)N[C@@H](CCC(N)=O)C(=O)N[C@@H](CC(C)C)C(=O)N[C@@H](CCCNC(=N)N)C(=O)N[C@@H](CCC(N)=O)C(=O)N[C@@H](CCCNC(=N)N)C(=O)O)[C@@H](C)O` [ERAP1-peptide], in assay [1], the cell cycle result is given as “induced stop of the G1 phase; also recorded: increase of cells having stopped in the G1 phase”. Moreover, the “expression of ERα target genes” value in assay [2] (after 24 hours) was “expression of any of the genes was remarkably suppressed”. For the same molecule, the “time at which significant expression suppression effect was first recognized” value in assay [2] (after addition of the peptide) stood at 6 h. The “E2-dependent phosphorylation of ERα sites” value in assay [3] is on record as “E2-dependent phosphorylation in all of the sites was suppressed”. Moreover, the “antitumor effect (tumor volume)” value in assay [4] is “The antitumor effect was recognized”. For the same molecule, in assay [5], the “activations of AKT and MAPK” value is “activations of AKT and MAPK were suppressed”; the “binding of ERα and Shc and of ERα and IGF-1Rβ” value is “the binding of ERα and Shc and the binding of ERα and IGF-1Rβ were inhibited”. Besides, in assay [6], the “bindings of ERα to Her2, EGFR, IGF1-Rβ and PI3K” value is “all of the bindings of ERα to Her2, EGFR, IGF1-Rβ and PI3K were inhibited”. The “change of protein expressions” value in assay [7] is “decreased significantly and genome-widely”.

The values are drawn from patent US9725490B2, “ERAP1-derived peptide and use thereof” (TOKUSHIMA UNIVERSITY, priority 2011, dated 2017).
